# pIC50: −log10 of the molar value.
# Tested on: 519858-162-T-J1-PDC complex spheroid growth, % test/control
# Assay: Anticancer human tumor 519858-162-T-J1-PDC patient-derived colon adenocarcinoma cell line growth inhibition [Asc]
# Conditions: for pIC50: curve of first compound; for viability, T/C: stronger effect = lower value
# Summary of the method: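 Tumor cells were grown as multicellular spheroids with stromal HUVEC and mesenchymal stem cells and treated singly or in combination. Concentrations fell in half-log steps from the clinical Cmax, or from 10 microM where none was known.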
# [1] = second compound 0.0316 µM, first compound 0.00316 µM
# [2] = second compound 0.0316 µM, first compound 0.01 µM
# [3] = second compound 0.0316 µM, first compound 0.0316 µM
# [4] = second compound 0.0316 µM, first compound 0.1 µM
# [5] = second compound 0.1 µM, first compound 0.00316 µM
# [6] = second compound 0.1 µM, first compound 0.01 µM
# [7] = second compound 0.1 µM, first compound 0.0316 µM
# [8] = second compound 0.1 µM, first compound 0.1 µM
# [9] = second compound 0.316 µM, first compound 0.00316 µM
# [10] = second compound 0.316 µM, first compound 0.01 µM
# [11] = second compound 0.316 µM, first compound 0.0316 µM
# [12] = second compound 0.316 µM, first compound 0.1 µM
# [13] = second compound 1 µM, first compound 0.00316 µM
# [14] = second compound 1 µM, first compound 0.01 µM
# [15] = second compound 1 µM, first compound 0.0316 µM
# [16] = second compound 1 µM, first compound 0.1 µM
# [17] = second compound 3.16 µM, first compound 0.00316 µM
# [18] = second compound 3.16 µM, first compound 0.01 µM
# [19] = second compound 3.16 µM, first compound 0.0316 µM
# [20] = second compound 3.16 µM, first compound 0.1 µM
# [21] = second compound 10 µM, first compound 0.00316 µM
# [22] = second compound 10 µM, first compound 0.01 µM
# [23] = second compound 10 µM, first compound 0.0316 µM
# [24] = second compound 10 µM, first compound 0.1 µM
# 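Also: seven day drug exposure begun three days after spheroid seeding.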
# 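For viability, T/C in this document: 100% = DMSO vehicle wells and lower values mean less viable spheroid.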
compound,measurement,setting,value
CNC(C)C(=O)NC1CN(S(=O)(=O)c2cccc(S(=O)(=O)N3CCC4CCC(C(=O)NC(c5ccccc5)c5ccccc5)N4C(=O)C(NC(=O)C(C)NC)C3)c2)CCC2CCC(C(=O)NC(c3ccccc3)c3ccccc3)N2C1=O (stereo unspecified) + Cc1c(S(C)(=O)=O)c(-c2cc(F)cc(N3CCN(c4ccc(NS(=O)(=O)c5ccc(NC(CCN6CCC(C(=O)OCCCP(=O)(O)O)CC6)CSc6ccccc6)c(S(=O)(=O)C(F)(F)F)c5)cc4)CC3)c2)c(-c2ccc(Cl)cc2)n1C(C)C,pIC50,second compound 0.0316 µM,< 6.00
same,pIC50,second compound 0.1 µM,< 6.00
same,pIC50,second compound 0.316 µM,< 6.00
same,pIC50,second compound 1 µM,< 6.00
same,pIC50,second compound 3.16 µM,< 6.00
same,pIC50,second compound 10 µM,6.30
same,"viability, T/C",[1],92.5%
same,"viability, T/C",[2],110%
same,"viability, T/C",[3],45%
same,"viability, T/C",[4],110%
same,"viability, T/C","second compound 0.0316 µM, first compound 0.316 µM",81.5%
same,"viability, T/C","second compound 0.0316 µM, first compound 1 µM",81.5%
same,"viability, T/C",[5],113%
same,"viability, T/C",[6],117%
same,"viability, T/C",[7],124%
same,"viability, T/C",[8],90%
same,"viability, T/C","second compound 0.1 µM, first compound 0.316 µM",76.7%
same,"viability, T/C","second compound 0.1 µM, first compound 1 µM",97.5%
same,"viability, T/C",[9],104%
same,"viability, T/C",[10],107%
same,"viability, T/C",[11],86.8%
same,"viability, T/C",[12],78.5%
same,"viability, T/C","second compound 0.316 µM, first compound 0.316 µM",72.3%
same,"viability, T/C","second compound 0.316 µM, first compound 1 µM",87.1%
same,"viability, T/C",[13],102%
same,"viability, T/C",[14],100%
same,"viability, T/C",[15],83.6%
same,"viability, T/C",[16],93%
same,"viability, T/C","second compound 1 µM, first compound 0.316 µM",96.5%
same,"viability, T/C","second compound 1 µM, first compound 1 µM",68.9%
same,"viability, T/C",[17],86.9%
same,"viability, T/C",[18],93%
same,"viability, T/C",[19],95.7%
same,"viability, T/C",[20],82.5%
same,"viability, T/C","second compound 3.16 µM, first compound 0.316 µM",66.8%
same,"viability, T/C","second compound 3.16 µM, first compound 1 µM",75%
same,"viability, T/C",[21],60.5%
same,"viability, T/C",[22],63.2%
same,"viability, T/C",[23],70.2%
same,"viability, T/C",[24],49%
same,"viability, T/C","second compound 10 µM, first compound 0.316 µM",63.1%
same,"viability, T/C","second compound 10 µM, first compound 1 µM",33.9%
NC1CCC(NC2CC2c2ccccc2)CC1 (stereo unspecified) + Cc1c(S(C)(=O)=O)c(-c2cc(F)cc(N3CCN(c4ccc(NS(=O)(=O)c5ccc(NC(CCN6CCC(C(=O)OCCCP(=O)(O)O)CC6)CSc6ccccc6)c(S(=O)(=O)C(F)(F)F)c5)cc4)CC3)c2)c(-c2ccc(Cl)cc2)n1C(C)C,pIC50,second compound 0.0316 µM,< 7.00
same,pIC50,second compound 0.1 µM,< 7.00
same,pIC50,second compound 0.316 µM,< 7.00
same,pIC50,second compound 1 µM,< 7.00
same,pIC50,second compound 3.16 µM,< 7.00
same,pIC50,second compound 10 µM,< 7.00
same,"viability, T/C","second compound 0.0316 µM, first compound 0.000316 µM",106%
same,"viability, T/C","second compound 0.0316 µM, first compound 0.001 µM",128%
same,"viability, T/C",[1],116%
same,"viability, T/C",[2],137%
same,"viability, T/C",[3],115%
same,"viability, T/C",[4],70.6%
same,"viability, T/C","second compound 0.1 µM, first compound 0.000316 µM",134%
same,"viability, T/C","second compound 0.1 µM, first compound 0.001 µM",122%
same,"viability, T/C",[5],92.7%
same,"viability, T/C",[6],94.8%
same,"viability, T/C",[7],79.9%
same,"viability, T/C",[8],98.3%
same,"viability, T/C","second compound 0.316 µM, first compound 0.000316 µM",65.3%
same,"viability, T/C","second compound 0.316 µM, first compound 0.001 µM",109%
same,"viability, T/C",[9],142%
same,"viability, T/C",[10],94%
same,"viability, T/C",[11],85.5%
same,"viability, T/C",[12],107%
same,"viability, T/C","second compound 1 µM, first compound 0.000316 µM",96.3%
same,"viability, T/C","second compound 1 µM, first compound 0.001 µM",74.7%
same,"viability, T/C",[13],99.4%
same,"viability, T/C",[14],60.3%
same,"viability, T/C",[15],134%
same,"viability, T/C",[16],77.9%
same,"viability, T/C","second compound 3.16 µM, first compound 0.000316 µM",72.6%
same,"viability, T/C","second compound 3.16 µM, first compound 0.001 µM",113%
same,"viability, T/C",[17],97.3%
same,"viability, T/C",[18],83.6%
same,"viability, T/C",[19],115%
same,"viability, T/C",[20],116%
same,"viability, T/C","second compound 10 µM, first compound 0.000316 µM",69.7%
same,"viability, T/C","second compound 10 µM, first compound 0.001 µM",79%
same,"viability, T/C",[21],60.6%
same,"viability, T/C",[22],77.1%
same,"viability, T/C",[23],55.4%
same,"viability, T/C",[24],69.9%
CNC(C)C(=O)NC1CN(S(=O)(=O)c2cccc(S(=O)(=O)N3CCC4CCC(C(=O)NC(c5ccccc5)c5ccccc5)N4C(=O)C(NC(=O)C(C)NC)C3)c2)CCC2CCC(C(=O)NC(c3ccccc3)c3ccccc3)N2C1=O (stereo unspecified) + CCN1C(C(=O)NC23CCC(C(=O)O)(CC2)CC3)C(c2cccc(Cl)c2F)C2(C(=O)Nc3cc(Cl)ccc32)C12CCCCC2,pIC50,second compound 0.00949 µM,> 8.50
same,pIC50,second compound 0.03 µM,< 6.00
same,pIC50,second compound 0.0949 µM,< 6.00
same,pIC50,second compound 0.3 µM,< 6.00
same,pIC50,second compound 0.949 µM,< 6.00
same,pIC50,second compound 3 µM,< 6.00
same,"viability, T/C","second compound 0.00949 µM, first compound 0.00316 µM",49.9%
same,"viability, T/C","second compound 0.00949 µM, first compound 0.01 µM",104%
same,"viability, T/C","second compound 0.00949 µM, first compound 0.0316 µM",91.5%
same,"viability, T/C","second compound 0.00949 µM, first compound 0.1 µM",64.4%
same,"viability, T/C","second compound 0.00949 µM, first compound 0.316 µM",98.7%
same,"viability, T/C","second compound 0.00949 µM, first compound 1 µM",74.6%
same,"viability, T/C","second compound 0.03 µM, first compound 0.00316 µM",112%
same,"viability, T/C","second compound 0.03 µM, first compound 0.01 µM",89.9%
same,"viability, T/C","second compound 0.03 µM, first compound 0.0316 µM",88.3%
same,"viability, T/C","second compound 0.03 µM, first compound 0.1 µM",79%
same,"viability, T/C","second compound 0.03 µM, first compound 0.316 µM",54.9%
same,"viability, T/C","second compound 0.03 µM, first compound 1 µM",99%
same,"viability, T/C","second compound 0.0949 µM, first compound 0.00316 µM",89.1%
same,"viability, T/C","second compound 0.0949 µM, first compound 0.01 µM",73.9%
same,"viability, T/C","second compound 0.0949 µM, first compound 0.0316 µM",85.1%
same,"viability, T/C","second compound 0.0949 µM, first compound 0.1 µM",75.4%
same,"viability, T/C","second compound 0.0949 µM, first compound 0.316 µM",60.4%
same,"viability, T/C","second compound 0.0949 µM, first compound 1 µM",96.4%
same,"viability, T/C","second compound 0.3 µM, first compound 0.00316 µM",94.6%
same,"viability, T/C","second compound 0.3 µM, first compound 0.01 µM",75.3%
same,"viability, T/C","second compound 0.3 µM, first compound 0.0316 µM",81.2%
same,"viability, T/C","second compound 0.3 µM, first compound 0.1 µM",68.2%
same,"viability, T/C","second compound 0.3 µM, first compound 0.316 µM",74.4%
same,"viability, T/C","second compound 0.3 µM, first compound 1 µM",58.2%
same,"viability, T/C","second compound 0.949 µM, first compound 0.00316 µM",94.3%
same,"viability, T/C","second compound 0.949 µM, first compound 0.01 µM",87.4%
same,"viability, T/C","second compound 0.949 µM, first compound 0.0316 µM",85.7%
same,"viability, T/C","second compound 0.949 µM, first compound 0.1 µM",70.5%
same,"viability, T/C","second compound 0.949 µM, first compound 0.316 µM",68.2%
same,"viability, T/C","second compound 0.949 µM, first compound 1 µM",66%
same,"viability, T/C","second compound 3 µM, first compound 0.00316 µM",62%
same,"viability, T/C","second compound 3 µM, first compound 0.01 µM",76.1%
same,"viability, T/C","second compound 3 µM, first compound 0.0316 µM",72.4%
same,"viability, T/C","second compound 3 µM, first compound 0.1 µM",93.9%
same,"viability, T/C","second compound 3 µM, first compound 0.316 µM",73.2%
same,"viability, T/C","second compound 3 µM, first compound 1 µM",74%

# Source: PubChem BioAssay AID1963421 (Molecular Pharmacology Branch, DTP, NCI, 2024)
